Source: patent US9221809B2 (MERCK SHARP & DOHME CORP., priority 2011, dated 2015)
pIC50: −log10 of the molar value. Where a name gives a salt, the structure may show the parent alone. Read-outs that look alike come from different tables or passages of the source.

Molecular target: IRAK4 (Homo sapiens (Human), UniProt Q9NWZ3)
Test: IRAK4 kinase activity, IMAP fluorescence polarization assay
Format: biochemical
Conditions: 100 μM ATP
Method in brief: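 GST-tagged IRAK4 at 0.5 nM phosphorylates 100 nM fluorescent peptide substrate with 100 μM ATP in pH 7.2 Tris buffer containing MgCl2, DTT and Tween 20, 30 min at 25 °C. Reaction stopped with IMAP binding reagent; phosphorylation read as increased fluorescence polarization.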

[1] = 0.5 nM GST tagged IRAK4, read-out: IRAK4 IC50

IRAK4, sequence (Q9NWZ3 whole entry): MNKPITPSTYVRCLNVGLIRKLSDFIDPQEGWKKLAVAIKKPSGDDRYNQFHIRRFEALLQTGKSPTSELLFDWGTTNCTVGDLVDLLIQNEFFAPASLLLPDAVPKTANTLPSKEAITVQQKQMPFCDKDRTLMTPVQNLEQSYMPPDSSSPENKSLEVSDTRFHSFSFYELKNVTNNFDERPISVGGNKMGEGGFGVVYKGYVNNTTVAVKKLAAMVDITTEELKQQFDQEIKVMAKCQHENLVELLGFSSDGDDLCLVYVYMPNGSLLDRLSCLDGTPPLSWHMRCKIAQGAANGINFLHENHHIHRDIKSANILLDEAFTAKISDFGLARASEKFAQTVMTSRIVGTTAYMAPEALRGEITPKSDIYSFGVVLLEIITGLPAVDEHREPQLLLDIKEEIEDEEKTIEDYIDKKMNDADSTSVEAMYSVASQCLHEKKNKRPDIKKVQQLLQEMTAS

Structure (SMILES)	pIC50 (read-out: IC50)	pIC50 [1]	other results
O=c1[nH]c(N2CC(O)(C(F)(F)F)C2)nc(N[C@@H]2CCCNC2)c1-c1ccc2ccccc2n1 [Example 170, (R)-2-(3-hydroxy-3-(trifluoromethyl)azetidin-1-yl)-6-(piperidin-3-ylamino)-5-(quinolin-2-yl)pyrimidin-4(3H)-one]	–	–	pIC50 (read-out: IRAK4 IC50): 7.74
CS(=O)(=O)C1CN(c2nc(N[C@@H]3C[C@H](CO)[C@@H](O)[C@H]3O)c(-c3nc4ccccc4s3)c(=O)[nH]2)C1 [Example 71, 5-(benzo[d]thiazol-2-yl)-6-((1R,2S,3R,4R)-2,3-dihydroxy-4-(hydroxymethyl)cyclopentylamino)-2-(3-(methylsulfonyl)azetidin-1-yl)pyrimidin-4(3H)-one]	–	–	pIC50 (unit inferred, read-out: IRAK4 IC50): 7.75
COc1ccnc(N2CCN(c3nc(N[C@@H]4CCCNC4)c(-c4nc5ccccc5s4)c(=O)[nH]3)CC2)c1 [Example 142, (R)-5-(benzo[d]thiazol-2-yl)-2-(4-(4-methoxypyridin-2-yl)piperazin-1-yl)-6-(piperidin-3-ylamino)pyrimidin-4(3H)-one]	–	–	pIC50 (read-out: IRAK4 IC50): 8.22
O=c1[nH]c(N2CCCCC2)nc(N[C@@H]2C[C@H](CO)[C@@H](O)[C@H]2O)c1-c1nc(-c2ccc(F)cc2)cs1 [Example 59, 6-(((1R,2S,3R,4R)-2,3-Dihydroxy-4-(hydroxymethyl)cyclopentyl)amino)-5-(4-(4-fluorophenyl)thiazol-2-yl)-2-(piperidin-1-yl)pyrimidin-4(3H)-one HCl]	–	7.65	–
O=c1[nH]c(N2CCOCC2)nc(N[C@@H]2CCCNC2)c1-c1ccc2ccccc2n1 [Example 93, (R)-2-Morpholino-6-(piperidin-3-ylamino)-5-(quinolin-2-yl)pyrimidin-4(3H)-one.HCl]	–	7.59	–
O=c1[nH]c(N2CCCC2)nc(N[C@@H]2CCCNC2)c1-c1nc2c(C3CC3)nccc2s1 [Example 118, (R)-5-(4-cyclopropylthiazolo[4,5-c]pyridin-2-yl)-6-(piperidin-3-ylamino)-2-(pyrrolidin-1-yl)pyrimidin-4(3H)-one.HCl]	–	7.85	–
C[C@H]1C[C@@H](Nc2nc(N3CCOCC3)[nH]c(=O)c2-c2nc3ccccc3s2)[C@H](O)[C@@H]1O [Example 47, 5-(Benzo[d]thiazol-2-yl)-6-((1R,2S,3R,4S)-2,3-dihydroxy-4-methylcyclopentylamino)-2-morpholinopyrimidin-4(3H)-one.HCl]	–	7.64	–
O=c1[nH]c(N2CCOCC2)nc(N[C@@H]2CCCNC2)c1-c1nc2ccccc2o1 [Example 196]	–	–	pIC50 (read-out: IRAK4 IC50): 5.74

The next lines start with results.

pIC50 (read-out: IC50)	pIC50 [1]	Structure (SMILES)	other results
6.82	–	CC1(Nc2nc(N3CCOCC3)[nH]c(=O)c2-c2nc3ccccc3s2)CCCNC1 (centres unmarked) [Example 248, 5-(1,3-benzothiazol-2-yl)-6-[(3-methylpiperidin-3-yl)amino]-2-(morpholin-4-yl)-3,4-dihydro-pyrimidin-4-one]	–
7.21	–	O=c1[nH]c(N2CCC(CO)CC2)nc(N[C@@H]2CCCNC2)c1-c1nc2ccccc2s1 [Example 305, 5-(1,3-benzothiazol-2-yl)-2-[4-(hydroxymethyl)piperidin-1-yl]-6-[[(3R)-piperidin-3-yl]amino]-3,4-dihydropyrimidin-4-one]	–
7.15	–	O=c1[nH]c(N2CCCCC2)nc(N[C@@H]2CCCNC2)c1-c1nc2ccccc2s1 [Example 309, 5-(1,3-benzothiazol-2-yl)-2-(piperidin-1-yl)-6-[[(3R)-piperidin-3-yl]amino]-3,4-dihydropyrimidin-4-one hydrochloride]	–
5.92	–	O=c1[nH]c(N[C@@H]2c3ccccc3C[C@@H]2O)nc(N[C@@H]2CCCNC2)c1-c1nc2ccccc2s1 [Example 299, 5-(1,3-benzothiazol-2-yl)-2-[[(1R,2S)-2-hydroxy-2,3-dihydro-1H-inden-1-yl]amino]-6-[[(3R)-piperidin-3-yl]amino]pyrimidin-4-ol formic acid]	–
–	7.62	N[C@H]1CCCC[C@H]1Nc1cccc2sc(-c3c(N[C@@H]4CCCNC4)nc(N4CCOCC4)[nH]c3=O)nc12 (racemic) [Example 353, 5-[4-[(cis, rac)-(2-aminocyclohexyl)amino]-1,3-benzothiazol-2-yl]-2-(morpholin-4-yl)-6-[[(3R)-piperidin-3-yl]amino]-3,4-dihydropyrimidin-4-one]	–
5.31	–	O=c1[nH]c(N2CCOCC2)nc(NCCN2CCCC2)c1-c1ccc2ccccc2n1 [Example 279, 2-(morpholin-4-yl)-6-[[2-(pyrrolidin-1-yl)ethyl]amino]-5-(quinolin-2-yl)-3,4-dihydropyrimidin-4-one]	–
